Test results published in US20050129618A1, “Drugs for ameliorating itch, rough skin or hypersensitive skin or for whitening via inhibition of the production and release of stem cell factor” (Shiseido Co., ltd., priority 2001, published 2005).

Test system: SCF expression on keratinocyte membranes
Test: Accelerated SCF expression on keratinocyte membranes by different stimulations
Type: cell-based, human
Conditions: chemical stimulation, culturing for 24 hours; FIG. 4
Experimental: After plating 1.5 million keratinocytes on a 10 cm plate and culturing for 72 hours, the cells were stimulated by one of the following: (1) exchanging the medium with PBS(−), irradiating the culture with UVB at 20 mJ/cm^2 and then immediately exchanging the PBS(−) with medium, (2) adding forskolin, or (3) adding theophyllin. After culturing for 24 hours, the cells were collected and then dispersed in 200 μl of 50 mM phosphate buffer solution (pH 7.8)+protease inhibitor solution, and the cells were then disrupted with an ultrasonic disrupter for five 30-second disruption cycles at 4° C. After centrifugation at 10,000 g for 20 minutes at 4° C., the supernatant was further centrifuged at 100,000 g for 60 minutes at 4° C. The obtained pellet was dissolved in 100 μl of 25 mM phosphate buffer solution (pH 6.8)+0.1% Triton-X100 solution and a membrane fraction protein extract was obtained. The protein content of the solution was measured by an established method, and then the SCF amount was assayed to obtain an SCF/protein value.

## Cn1c(=O)c2[nH]cnc2n(C)c1=O [theophyllin]
  expression of SCF in the cells or on the cell membranes (SCF/protein value of membrane fraction): accelerated expression of SCF
